The text below walks through data of ChEMBL document CHEMBL1201862, “PubChem BioAssay data set” (2004).

Test systems include RPMI-8226; MCF7; A549; SW-620; PC-3; M14; MDA-N; NCI-H460; ACHN; K562; OVCAR-5; UO-31; EKVX; MDA-MB-231; HCC 2998; NCI/ADR-RES; RXF 393; UACC-62; HL-60.
Common to all, as to assay: DTP human tumour cell line panel, 48 h

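Each compound was tested at five concentrations against cells in 96-well plates for 48 hours. Abbreviation: GI50, concentration required for 50% inhibition of growth.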 Calls of active or inactive are those of the source. Rule as the data show it: active = GI50 up to about 1.1 µM and inactive = higher.

One may read the GI50 as the concentration giving 50% growth inhibition. As to `CN(C)/C=C/c1ccnc2c1C(=O)c1ccccc1C2=O`, the GI50 was 3.48 µM (inactive) in the experiment with RPMI-8226; 4.46 µM (inactive) in the experiment on MCF7; 8.99 µM (inactive) in the experiment on A549; 3.21 µM (inactive) with SW-620; 8 µM (inactive) with PC-3; 1.92 µM (inactive) in the experiment with M14. Also, the GI50 in the experiment with MDA-N is 1.32 µM (inactive); in the experiment with NCI-H460 it was 2.35 µM (inactive); with ACHN, 6.73 µM (inactive); in the experiment on K562 it was 2.45 µM (inactive); with OVCAR-5, 17.3 µM (inactive); with UO-31 it was 7.48 µM (inactive). For the same compound, the GI50 with EKVX is 18.3 µM (inactive); in the experiment on MDA-MB-231, 30.6 µM (inactive); in the experiment with HCC 2998, 7.64 µM (inactive); in the experiment with NCI/ADR-RES it was 19 µM (inactive); in the experiment on RXF 393, > 59.3 µM (inactive); in the experiment on UACC-62 it was 1.38 µM (inactive). The GI50 with HL-60 is 10.9 µM (inactive).
On to `O=C1/C(=C/c2ccc([N+](=O)[O-])cc2)Sc2scc(-c3cccc([N+](=O)[O-])c3)[n+]21`, for which the GI50 in the experiment with RPMI-8226 was 3.01 µM (inactive); with MCF7 it was 4.09 µM (inactive); in the experiment on A549, 22.2 µM (inactive); in the experiment with SW-620 it was 1.69 µM (inactive); in the experiment with PC-3 it was 12.5 µM (inactive); in the experiment on M14 it was 3.78 µM (inactive). Besides, the GI50 was 4.35 µM (inactive) with MDA-N; 8.99 µM (inactive) in the experiment with NCI-H460; 3.97 µM (inactive) with ACHN; 2.77 µM (inactive) in the experiment on K562; 8.89 µM (inactive) in the experiment with OVCAR-5; 8.51 µM (inactive) with UO-31. In addition, the GI50 was 6.7 µM (inactive) in the experiment with EKVX; 4.91 µM (inactive) in the experiment with MDA-MB-231; 5.56 µM (inactive) in the experiment with HCC 2998; 5.89 µM (inactive) in the experiment with NCI/ADR-RES; 2.35 µM (inactive) with RXF 393; 8.79 µM (inactive) in the experiment with UACC-62. Further, the GI50 in the experiment with HL-60 was 0.331 µM (active).
Regarding `N/C(=N\c1ccccc1Cl)c1ccccc1N`, the GI50 with RPMI-8226, with MCF7, in the experiment with A549, in the experiment with SW-620, in the experiment with PC-3 and in the experiment on M14 was > 100 µM (inactive) each time. The GI50 in the experiment with MDA-N, in the experiment with NCI-H460, in the experiment on ACHN, in the experiment on K562, in the experiment with OVCAR-5 and with UO-31 was > 100 µM (inactive) each time. In addition, the GI50 in the experiment with EKVX, with MDA-MB-231, with HCC 2998, with NCI/ADR-RES, in the experiment with RXF 393 and in the experiment on UACC-62 was > 100 µM (inactive) in each case. Moreover, the GI50 with HL-60 was > 100 µM (inactive).
Take `COC(=O)CC1(O)C(/C=C/c2ccccc2)C(C(=O)OC)C(=O)C(C(=O)OC)C1C(=O)OC` (stereo unspecified): the GI50 in the experiment on RPMI-8226 is > 100 µM (inactive); with MCF7, 96.8 µM (inactive); with A549 it was > 100 µM (inactive); in the experiment on SW-620, > 100 µM (inactive); with PC-3, 78.7 µM (inactive); in the experiment on M14, > 100 µM (inactive). For the same compound, the GI50 in the experiment on MDA-N was 44 µM (inactive); in the experiment on NCI-H460 it was > 100 µM (inactive); in the experiment with ACHN, > 100 µM (inactive); with K562, > 100 µM (inactive); in the experiment with OVCAR-5, > 100 µM (inactive); with UO-31, > 100 µM (inactive). Moreover, the GI50 in the experiment with EKVX was > 100 µM (inactive); in the experiment on MDA-MB-231, > 100 µM (inactive); with HCC 2998 it was > 100 µM (inactive); with NCI/ADR-RES, 85.3 µM (inactive); in the experiment with RXF 393, > 100 µM (inactive); in the experiment on UACC-62, 81.1 µM (inactive). The GI50 in the experiment with HL-60 was > 100 µM (inactive).
